Source: publication PMC7221892, “In Vitro and in Vivo Activity of mTOR Kinase and PI3K Inhibitors Against Leishmania donovani and Trypanosoma brucei” (Molecules, 2020)

How the values were obtained:
[1] = tested on: intracellular L. donovani; test: Intracellular L. donovani in THP-1 cells, dose-dilution high-content imaging assay; format: cell-based; settings: for activity confirmation in dose-dilution assays: intracellular L. donovani EC50 / THP-1 CC50, result in words; for EC50: Leishmania donovani, THP-1 cells infected with L. donovani, 72 h, duplicate measurements, read-out: Intracellular L. donovani EC50 ± SD; for Selectivity Index (SI): SI = THP-1 CC50/Intracellular L. donovani EC50
Experimental: (§1) PMA-treated THP-1 human monocytic cells were seeded at 0.8 × 10^4 cells per well in a 384-well culture plate (Greiner Bio-One, Kremsmünster, Austria) in RPMI-1640 complete medium supplemented with 10% FBS. After 48 h of incubation at 37 °C in the presence of 5% CO2, the promastigotes of L. donovani that were incubated with lectin for 30 min at 28 °C were added to the cells at a parasite to cell ratio of 20:1. […] The negative control consisted of THP-1 infected with the parasite with only 0.5% DMSO. After 72 h, the cells that were infected and treated with the drug were washed with serum-free RPMI-1640 medium. The cells and parasites were stained using 5 μM DRAQ5 and 4% PFA. The images were acquired based on reading using an Operetta® automated microscope (PerkinElmer, Inc., Waltham, MA 02451 USA). They were further analyzed using Columbus^TM (PerkinElmer, Inc. Waltham, MA, USA) software to quantify parasite numbers, host cell numbers, and infection ratios. In brief, large-sized nucleus of host cells was first detected using Draq-5 (Thermo Fisher, Rockford, IL, USA) signal and the host cell boundary masking was performed using the low-intensity signals from cytosols (additional feature of Draq-5). Then the small-sized nucleus signal by Draq-5 was used to identify parasites within the area of masked host cell. Infection ratio (IR) was determined with the value of the number of infected cells divided by total number of cells and the average number of parasites per macrophage (P/φ) was defined by the value of the number of parasites divided by the number of infected cells in the acquired image.
(§2) All of the half maximal effective concentrations (EC50) and the half maximal cytotoxic concentrations (CC50) values were calculated using two independent experiments. The dose-response curves were fitted using GraphPad Prism 6 software (GraphPad Software, San Diego, CA, USA) by using a sigmoidal dose-response equation with a variable hill slope option.

[2] = tested on: L. donovani promastigotes; test: L. donovani promastigote growth inhibition (resazurin); format: cell-based; settings: Leishmania donovani, 72 h, 3 days exposure, read-out: L. donovani Promastigote EC50 ± SD
Experimental: (§3) L. donovani promastigote and T. b. brucei Lister 427 BSF growth inhibition were assayed by measuring the conversion of resazurin to resorufin. The assays were performed in 384-well plates that were seeded with L. donovani promastigotes or T. brucei 427 BSF (5 × 10^4 cells per well). After seeding, the parasites were exposed to the compounds for 3 days. Resazurin sodium salt (200 μM; R7017; Sigma-Aldrich, St. Louis, MO, USA) was then added, and the samples were incubated for 5 h. After incubation, the parasites were fixed using 4% paraformaldehyde, and the plates were analyzed using a Victor3^TM plate reader (PerkinElmer, Inc., Waltham, MA, USA) at 590 nm (emission) and 530 nm (excitation). […] Pentamidine was used for the T. b. brucei Lister 427 BSF growth inhibition assay.
as §2

[3] = Host cell cytotoxicity (CC50) in infected THP-1 cells, dose-dilution assay; format: cell-based; settings: human, infected THP-1 host cells, read-out: THP-1 Cell CC50 ± SD
Experimental: as §1, §2

[4] = tested on: intracellular L. donovani; test: Pilot high-content screening against intracellular L. donovani at 10 μM; format: cell-based; settings: screening concentration 10 µM
Experimental: as §1, with “image. The average IR value of the negative control wells was calculated as 0.53. Compounds selected based on the screening results were further assessed in a dose-dilution manner (two-fold serial dilution for 20 points starting from 100 μM) using the same method.” for “image.”

[5] = tested on: T. b. brucei Lister 427 BSF; test: T. b. brucei Lister 427 bloodstream form growth inhibition (resazurin); format: cell-based; settings: Trypanosoma brucei, 72 h, 3 days exposure, read-out: T. brucei Lister 427 BSF EC50 ± SD
Experimental: as §3, §2

L. donovani = test: VL mouse model (L. donovani-infected BALB/c mice); format: in vivo; settings: miltefosine 30, Torin2 15, dactolisib 50, NVP-BGT226 5 mg/kg; for Inhibition of L. donovani In Vivo (%) (Mean ± SD): liver parasite burden vs vehicle, per os 5 days; for LDU in the Liver (Mean ± SD): once daily per os for 5 days from day 7 post-infection
Experimental: The highest dose for each compound without showing adverse effects was selected based on literature search. The vehicle for the compounds was 5% N-methylpyrrolidone, 15% polyvinylpyrrolidone, and 80% deionized water. Drug dosing solutions were freshly prepared each day. All drugs were administered once daily for 5 days via the per os route. On day 16 post-infection, all animals were humanely euthanized and assessed microscopically using Giemsa-stained liver imprints. Parasite burdens were measured by counting (blinded to treatment) the number of amastigotes per 1000 cell nuclei and multiplying this number by the liver weight (mg) (Leishman-Donovan Unit: LDU). The LDU values for the drug-treated samples were compared to those of the untreated samples, and the percent inhibition values were calculated.

CN1[C@@H]2CC[C@H]1CC(OC(c1ccccc1)c1ccc(Cl)cc1)C2 (stereo partly drawn) [3-CPMT]
activity confirmation in dose-dilution assays [1]: either low activity (half maximal effective concentration, EC50) or high toxicity (CC50)

C[C@@H]1[C@H](O)[C@@H](C)/C=C/C=C/C=C/C=C/C=C/C=C/C=C/[C@H](O[C@@H]2O[C@H](C)[C@@H](O)[C@H](N)[C@@H]2O)C[C@@H]2O[C@](O)(C[C@@H](O)C[C@@H](O)[C@H](O)CC[C@@H](O)C[C@@H](O)CC(=O)O[C@H]1C)C[C@H](O)[C@H]2C(=O)O [Amphotericin B]
EC50 [2]: 0.015 ± 0.003 µM | EC50 [1]: 0.34 ± 0.04 µM | Selectivity Index (SI) [1]: >11.8 | CC50 at 72 h [3]: > 4 µM

CC[C@H](Nc1ncnc2[nH]cnc12)c1nc2cccc(F)c2c(=O)n1-c1ccccc1 [CAL-101]
inhibition of intracellular parasite survival in screening [4]: no direct effects on the parasite

Cn1c(=O)n(-c2ccc(C(C)(C)C#N)cc2)c2c3cc(-c4cnc5ccccc5c4)ccc3ncc21 [Dactolisib (NVP-BEZ235)]
EC50 [2]: 0.38 ± 0.06 µM | EC50 [5]: 0.12 ± 0.01 µM | inhibition of intracellular parasite survival in screening [4]: found active | EC50 [1]: 0.36 ± 0.07 µM | Selectivity Index (SI) [1]: ≥277.8 | Inhibition of L. donovani In Vivo (%) (Mean ± SD) (L. donovani): 53 ± 9.50% | Inhibition of L. donovani In Vivo (%) (Mean ± SD) (L. donovani; listed as dactolisib): 53% | LDU in the Liver (Mean ± SD) (L. donovani): 527 ± 108 LDU | CC50 at 72 h [3]: > 100 µM

Cc1cc(Nc2cc(N3CCN(C)CC3)nc(/C=C/c3ccccc3)n2)n[nH]1 [ENMD-2076]
activity confirmation in dose-dilution assays [1]: either low activity (half maximal effective concentration, EC50) or high toxicity (CC50)

Fc1ccc(C(OCCN2CCN(CCCc3ccccc3)CC2)c2ccc(F)cc2)cc1 [GBR12909]
activity confirmation in dose-dilution assays [1]: either low activity (half maximal effective concentration, EC50) or high toxicity (CC50)

O=S(=O)(NCCNC/C=C/c1ccc(Br)cc1)c1cccc2cnccc12 [H89]
activity confirmation in dose-dilution assays [1]: either low activity (half maximal effective concentration, EC50) or high toxicity (CC50)

CCCCCCCCCCCCCCCCOP(=O)([O-])OCC[N+](C)(C)C [Miltefosine]
EC50 [1]: 4.81 ± 0.81 µM | Inhibition of L. donovani In Vivo (%) (Mean ± SD) (L. donovani): 87 ± 2.13% | LDU in the Liver (Mean ± SD) (L. donovani): 142 ± 24 LDU | CC50 at 72 h [3]: > 40 µM

COc1ccccc1C1(O)CCN(CCCn2c3ccccc3c3ccccc32)CC1 [NNC05–2090]
activity confirmation in dose-dilution assays [1]: confirmed to be active

CCn1nnc2c(N3CCOCC3)nc(-c3ccc(NC(=O)Nc4ccc(C(=O)N5CCN(C)CC5)cc4)cc3)nc21 [PKI-402]
EC50 [2]: 0.49 ± 0.22 µM | EC50 [5]: 0.26 ± 0.02 µM | EC50 [1]: 13.4 ± 2.35 µM | Selectivity Index (SI) [1]: 2.1 | CC50 at 72 h [3]: 28.5 ± 1.2 µM

N=C(N)c1ccc(OCCCCCOc2ccc(C(=N)N)cc2)cc1 [Pentamidine]
EC50 [5]: 0.15 ± 0.01 µM

[O-][S+](c1ccccc1)c1ccc2nnnn2n1 (stereo not drawn) [Ro 106–9920]
activity confirmation in dose-dilution assays [1]: confirmed to be active

COc1ccc(CCCOC(Cn2ccnc2)c2ccc(OC)cc2)cc1 (stereo not drawn) [SKF 96365]
activity confirmation in dose-dilution assays [1]: confirmed to be active

CC(C)n1nc(-c2ccc3oc(N)nc3c2)c2c(N)ncnc21 [Sapanisertib]
EC50 [2]: 7.46 ± 1.04 µM | EC50 [5]: 5.34 ± 0.98 µM | EC50 [1]: 6.39 ± 1.12 µM | CC50 at 72 h [3]: > 100 µM

CNC(=O)Nc1ccc(-c2nc(N3CC4CCC(C3)O4)c3cnn(C4CCC5(CC4)OCCO5)c3n2)cc1 [WYE-125132]
EC50 [2]: 0.36 ± 0.04 µM | EC50 [5]: 0.12 ± 0.01 µM | EC50 [1]: 2.26 ± 0.71 µM | Selectivity Index (SI) [1]: 19 | CC50 at 72 h [3]: 43.3 ± 2.7 µM

CC(C)c1ccc(C(=O)c2cccs2)c(SCCCCCCCCN(C)C)n1 [Y29794]
activity confirmation in dose-dilution assays [1]: confirmed to be active

CN(C)C/C=C/C(=O)Nc1cc2c(Nc3ccc(F)c(Cl)c3)ncnc2cc1O[C@H]1CCOC1 [afatinib]
activity confirmation in dose-dilution assays [1]: either low activity (half maximal effective concentration, EC50) or high toxicity (CC50)

COc1cc2c(Oc3ccc4[nH]c(C)cc4c3F)ncnc2cc1OCCCN1CCCC1 [cediranib]
activity confirmation in dose-dilution assays [1]: either low activity (half maximal effective concentration, EC50) or high toxicity (CC50)

CO[C@H]1C[C@@H]2CC[C@@H](C)[C@@](O)(O2)C(=O)C(=O)N2CCCC[C@H]2C(=O)O[C@H]([C@H](C)C[C@@H]2CC[C@@H](OP(C)(C)=O)[C@H](OC)C2)CC(=O)[C@H](C)/C=C(\C)[C@@H](O)[C@@H](OC)C(=O)[C@H](C)C[C@H](C)/C=C/C=C/C=C/1C [deforolimus]
inhibition of intracellular parasite survival in screening [4]: did not show potent inhibition

CO[C@H]1C[C@@H]2CC[C@@H](C)[C@@](O)(O2)C(=O)C(=O)N2CCCC[C@H]2C(=O)O[C@H]([C@H](C)C[C@@H]2CC[C@@H](OCCO)[C@H](OC)C2)CC(=O)[C@H](C)/C=C(\C)[C@@H](O)[C@@H](OC)C(=O)[C@H](C)C[C@H](C)/C=C/C=C/C=C/1C [everolimus]
inhibition of intracellular parasite survival in screening [4]: did not show potent inhibition

S=C=Nc1cccc(C2(N3CCCCC3)CCCCC2)c1 [metaphit]
activity confirmation in dose-dilution assays [1]: confirmed to be active

CO[C@H]1C[C@@H]2CC[C@@H](C)[C@@](O)(O2)C(=O)C(=O)N2CCCC[C@H]2C(=O)O[C@H]([C@H](C)C[C@@H]2CC[C@@H](O)[C@H](OC)C2)CC(=O)[C@H](C)/C=C(\C)[C@@H](O)[C@@H](OC)C(=O)[C@H](C)C[C@H](C)/C=C/C=C/C=C/1C [rapamycin]
inhibition of intracellular parasite survival in screening [4]: did not show potent inhibition

CO[C@H]1C[C@@H]2CC[C@@H](C)[C@@](O)(O2)C(=O)C(=O)N2CCCC[C@H]2C(=O)O[C@H]([C@H](C)C[C@@H]2CC[C@@H](OC(=O)C(C)(CO)CO)[C@H](OC)C2)CC(=O)[C@H](C)/C=C(\C)[C@@H](O)[C@@H](OC)C(=O)[C@H](C)C[C@H](C)/C=C/C=C/C=C/1C [temsirolimus]
inhibition of intracellular parasite survival in screening [4]: did not show potent inhibition
